Laboratory results as given in PubChem BioAssay (NCI).
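Results reflect a 48-hour exposure of cells in 96-well plates to compound at five concentrations. Here, GI50 denotes the concentration required for 50% inhibition of growth. TGI is the concentration that stops growth completely.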

Columns and labels:
Assay in all cases: NCI anticancer screen, dose series, 48 h
[1] = system: A498 renal
[2] = system: A549 NSCLC
[3] = system: SK-OV-3 ovarian
[4] = system: SNB-75 CNS
[5] = system: HOP-62 NSCLC
[6] = system: SR leukemia
[7] = system: NCI-H226 lung
[8] = system: SNB-19 CNS
[9] = system: CCRF-CEM leukemia
[10] = system: HS 578T breast
[11] = system: MCF7 breast
[12] = system: SF-295 CNS
[13] = system: NCI-H460 lung

O=C(/C=C(/C=C/c1csc2ccccc12)OB(F)F)/C=C/c1csc2ccccc12
GI50 [1]: > 50 µM
TGI [1]: > 50 µM
GI50 [2]: > 50 µM
TGI [2]: > 50 µM
GI50 [3]: > 50 µM
TGI [3]: > 50 µM
GI50 [4]: 2.79 µM
TGI [4]: > 50 µM
GI50 [5]: > 50 µM
TGI [5]: > 50 µM
GI50 [6]: 0.23 µM
TGI [6]: > 50 µM
GI50 [7]: > 50 µM
TGI [7]: > 50 µM
GI50 [8]: 3.62 µM
TGI [8]: > 50 µM
GI50 [9]: 0.244 µM
TGI [9]: > 50 µM
GI50 [10]: 2.06 µM
TGI [10]: > 50 µM
GI50 [11]: 1.06 µM
TGI [11]: > 50 µM
GI50 [12]: > 26.2 µM
TGI [12]: > 50 µM
GI50 [13]: > 50 µM
TGI [13]: > 50 µM
